Assay results taken from patent US7795457B2, “Carbamate compounds” (Kosan Biosciences Incorporated, priority 2007, dated 2010).
Read-outs that look alike come from different tables or passages of the source.

Key:
MDA-MB-468 = assay: Inhibition of tumor cell proliferation, MDA-MB-468; format: cell-based; conditions: Homo sapiens, exposure time 1 h
Experimental: (§1) The biological activity of compounds of this invention was evaluated by measuring their inhibitory effect on the proliferation of various tumor cell lines. HCT-116 is a human colon cancer cell line. LNCap is a human prostate cancer cell line. SiHa is an HPV-16 positive human cervical cancer line.
(§2) Table D presents additional data for the activity of compounds A-1 and A-4 against various cell lines. In some instances, comparative data against leptomycin B (LMB) and/or compound VI (Dong et al., US 2005/0272727 A1 (2005) is also provided.
(§3) The additional cell lines tested against represent a variety of different cancers: bladder cancer (UM-UC-3), breast cancer (BT474, HCC1937, MDA-MB468, NCI-ADR), CNS cancer (U87MG (glioma), SKNSH (neuroblastoma)), colon cancer (LoVo, LS411N, LS513), head and neck cancer (CAL-27, FaDu), leukemia (CCRF-CEM, MOLT-4), liver cancer (HepG2), lung cancer (A549, NCI-H23, NCI-H358), melanoma (Colo829), ovarian cancer (OVCAR-4), pancreatic cancer (BxPC-3, Mia-PaCa2), prostate cancer (22Rv1, PC-3), and renal cancer (A-498, Caki-1).

CRM1 substrate RanBP1 = assay: Nuclear export block (RanBP1 localization, recovery after compound removal); format: cell-based; conditions: recovery of cytoplasmic RanBP1 localization after compound washout (typically 1 h exposure; 8, 24 or 48 h recovery)
Experimental: The nuclear export blocking capability of compounds of this invention was evaluated as follows:
1-5×10^4 cells were seeded onto 12 mm glass coverslips or wells of a chamber slide (for example, Lab-Tek #177445). Cells were grown overnight at 37° C. to allow cells to attach to the surface. Media was removed and replaced with media containing the desired test compound and incubated the required time period (typically 1 h). For recovery experiments, cells were washed with PBS or media and incubated in media without test compound for the desired recovery periods (typically 8, 24, or 48 h). The media was removed and coverslips/wells were washed with PBS pH 7.4 for 1 minute. Coverslips or slides were fixed with 3.7% formaldehyde in PBS for 20 minutes at room temperature, washed three times in PBS, and stained for the CRM1 substrate RanBP1.
Coverslips or chamber slides were permeabilized and blocked in 10% donkey serum, 0.1% Triton X-100 in PBS for 30 minutes at room temperature. Primary antibodies were diluted in PBS and incubated for 1 hour at room temperature: goat-anti-RanBP1 (Santa Cruz Biotechnology, sc-1160; 1:50 dilution) and mouse-anti-tubulin (Sigma, T9026; 1:400). Cells were washed 3×5 minutes in PBS. Secondary antibodies donkey-anti-goat Cy3 (705-165-147, Jackson Immunoresearch) and donkey anti-mouse FITC (715-095-150, Jackson Immunoresearch) were diluted 1:200 in PBS and incubated for 1 hour at room temperature. Secondary antibody was removed and cells were stained with a nuclear dye such as DAPI (Sigma, D8417; 2.5 ug/mL in PBS) or Hoechst 33342 (Molecular Probes, H3570; 100 ng/mL in PBS) for 5 minutes at room temperature. Cells were washed 3×5 minutes in PBS and coverslips were mounted with FluorSave (EMD Biosciences, 80058-108). Nuclear (N) or cytoplasmic (C) localization of RanBP1 was examined using a 40× objective on a Zeiss Axiovert 200 inverted epiflourescence microscope. Nuclear localization (N>C) was confirmed after the initial drugging period.

MOLT-4 = assay: Inhibition of tumor cell proliferation, MOLT-4; format: cell-based; conditions: Homo sapiens, exposure time 72 h
Experimental: as §1, §2, §3

LoVo = assay: Inhibition of tumor cell proliferation, LoVo; format: cell-based; conditions: Homo sapiens, exposure time 1 h
Experimental: as §1, §2, §3

LNCap = assay: Inhibition of tumor cell proliferation, LNCap; format: cell-based, human; conditions: Homo sapiens, LNCaP, read-out: Cancer Cell Line (IC50, nM) LNCap
Experimental: as §1

Caki-1 = assay: Inhibition of tumor cell proliferation, Caki-1; format: cell-based; conditions: Homo sapiens, exposure time 1 h
Experimental: as §1, §2, §3

SKNSH = assay: Inhibition of tumor cell proliferation, SKNSH; format: cell-based; conditions: Homo sapiens, SK-N-SH, read-out: IC50, nM, SKNSH
Experimental: as §1, §2, §3

A549 = assay: Inhibition of tumor cell proliferation, A549; format: cell-based; conditions: Homo sapiens, A549, 1 h, read-out: IC50, nM, A549
Experimental: as §1, §2, §3

SiHa = assay: Inhibition of tumor cell proliferation, SiHa; format: cell-based, human; conditions: Homo sapiens, SiHa, read-out: Cancer Cell Line (IC50, nM) SiHa
Experimental: as §1

HCT-116 = assay: Inhibition of tumor cell proliferation, HCT-116; format: cell-based, human; conditions: Homo sapiens, read-out: Cancer Cell Line (IC50, nM) HCT-116
Experimental: as §1

NCI-ADR = assay: Inhibition of tumor cell proliferation, NCI-ADR; format: cell-based; conditions: Homo sapiens, NCI/ADR-RES, read-out: IC50, nM, NCI-ADR
Experimental: as §1, §2, §3

CCRF-CEM = assay: Inhibition of tumor cell proliferation, CCRF-CEM; format: cell-based; conditions: Homo sapiens, exposure time 72 h
Experimental: as §1, §2, §3

A-498 = assay: Inhibition of tumor cell proliferation, A-498; format: cell-based; conditions: Homo sapiens, A498; exposure time 1 h
Experimental: as §1, §2, §3

PC-3 = assay: Inhibition of tumor cell proliferation, PC-3; format: cell-based; conditions: Homo sapiens
Experimental: as §1, §2, §3

NCI-H358 = assay: Inhibition of tumor cell proliferation, NCI-H358; format: cell-based; conditions: Homo sapiens
Experimental: as §1, §2, §3

22Rv1 = assay: Inhibition of tumor cell proliferation, 22Rv1; format: cell-based; conditions: Homo sapiens
Experimental: as §1, §2, §3

U87MG = assay: Inhibition of tumor cell proliferation, U87MG; format: cell-based; conditions: Homo sapiens, U-87 MG
Experimental: as §1, §2, §3

HCC1937 = assay: Inhibition of tumor cell proliferation, HCC1937; format: cell-based; conditions: Homo sapiens
Experimental: as §1, §2, §3

LS513 = assay: Inhibition of tumor cell proliferation, LS513; format: cell-based; conditions: Homo sapiens, LS-513
Experimental: as §1, §2, §3

LS411N = assay: Inhibition of tumor cell proliferation, LS411N; format: cell-based; conditions: Homo sapiens, LS-411N
Experimental: as §1, §2, §3

Colo829 = assay: Inhibition of tumor cell proliferation, Colo829; format: cell-based; conditions: Homo sapiens, COLO-829
Experimental: as §1, §2, §3

UM-UC-3 = assay: Inhibition of tumor cell proliferation, UM-UC-3; format: cell-based; conditions: Homo sapiens, read-out: IC50, nM, UM-UC-3
Experimental: as §1, §2, §3

Mia-PaCa2 = assay: Inhibition of tumor cell proliferation, Mia-PaCa2; format: cell-based; conditions: Homo sapiens, MIA PaCa-2
Experimental: as §1, §2, §3

OVCAR-4 = assay: Inhibition of tumor cell proliferation, OVCAR-4; format: cell-based; conditions: Homo sapiens
Experimental: as §1, §2, §3

NCI-H23 = assay: Inhibition of tumor cell proliferation, NCI-H23; format: cell-based; conditions: Homo sapiens
Experimental: as §1, §2, §3

BT474 = assay: Inhibition of tumor cell proliferation, BT474; format: cell-based; conditions: Homo sapiens, BT-474
Experimental: as §1, §2, §3

CAL-27 = assay: Inhibition of tumor cell proliferation, CAL-27; format: cell-based; conditions: Homo sapiens
Experimental: as §1, §2, §3

HepG2 = assay: Inhibition of tumor cell proliferation, HepG2; format: cell-based; conditions: Homo sapiens
Experimental: as §1, §2, §3

FaDu = assay: Inhibition of tumor cell proliferation, FaDu; format: cell-based; conditions: Homo sapiens
Experimental: as §1, §2, §3

Question: With `CC(=C/[C@H](C)C/C=C/C(C)=C/[C@@H](C)C(=O)[C@@H](C)[C@H](O)[C@@H](C)C/C(C)=C/COC(=O)NCc1ccccc1)/C=C/[C@H]1CC=CC(=O)O1` [Compound A-1] as the molecule, how does the IC50 (MDA-MB-468) read?
Answer: 30.6 nM

Question: And the “Nuclear Export Block” value (CRM1 substrate RanBP1)?
Answer: Slow recovery

Question: And the IC50 (MOLT-4)?
Answer: 3.2 nM

Question: What about the IC50 (LoVo) of the same molecule?
Answer: 10.3 nM

Question: And the IC50 (LNCap; 1 h)?
Answer: 4.7 nM

Question: And the IC50 (LNCap; 72 h)?
Answer: 1.8 nM

Question: What about the IC50 (Caki-1) of the same molecule?
Answer: 6.6 nM

Question: What about the IC50 (SKNSH; 1 h) of the same molecule?
Answer: 5.1 nM

Question: What about the IC50 (SKNSH; 72 h) of the same molecule?
Answer: 1.5 nM

Question: What about the IC50 (A549) of the same molecule?
Answer: 23.5 nM

Question: What about the IC50 (SiHa; 1 h) of the same molecule?
Answer: 3.6 nM

Question: What about the IC50 (SiHa; 72 h) of the same molecule?
Answer: 1.1 nM

Question: What about the IC50 (HCT-116; HCT-116, 1 h) of the same molecule?
Answer: 14.9 nM

Question: What about the IC50 (HCT-116; HCT-116, 72 h) of the same molecule?
Answer: 3.3 nM

Question: What about the IC50 (NCI-ADR; 1 h) of the same molecule?
Answer: 194 nM

Question: What about the IC50 (NCI-ADR; 72 h) of the same molecule?
Answer: 20.6 nM

Question: And the IC50 (CCRF-CEM)?
Answer: 4.2 nM

Question: And the IC50 (A-498)?
Answer: 16 nM

Question: And the IC50 (PC-3; exposure time 1 h)?
Answer: 7.4 nM

Question: What about the IC50 (PC-3; exposure time 72 h) of the same molecule?
Answer: 2.7 nM

Question: Which IC50 (NCI-H358; exposure time 1 h) does the source give for `CC(=C/[C@H](C)C/C=C/C(C)=C/[C@@H](C)C(=O)[C@@H](C)[C@H](OC(N)=O)[C@@H](C)C/C(C)=C/COC(N)=O)/C=C/[C@H]1CC=CC(=O)O1` [Compound A-4] here?
Answer: 5.6 nM

Question: And the IC50 (NCI-H358; exposure time 72 h)?
Answer: 0.7 nM

Question: And the IC50 (22Rv1; exposure time 1 h)?
Answer: 4.6 nM

Question: And the IC50 (22Rv1; exposure time 72 h)?
Answer: 0.7 nM

Question: What about the “Nuclear Export Block” value (CRM1 substrate RanBP1) of the same molecule?
Answer: Moderate recovery

Question: And the IC50 (U87MG; exposure time 1 h)?
Answer: 25.5 nM

Question: What about the IC50 (U87MG; exposure time 72 h) of the same molecule?
Answer: 1.5 nM

Question: What about the IC50 (LNCap; 1 h) of the same molecule?
Answer: 6.6 nM

Question: And the IC50 (LNCap; 72 h)?
Answer: 1.5 nM

Question: What about the IC50 (HCC1937; exposure time 1 h) of the same molecule?
Answer: 42.3 nM

Question: What about the IC50 (HCC1937; exposure time 72 h) of the same molecule?
Answer: 7.3 nM

Question: What about the IC50 (LS513; exposure time 1 h) of the same molecule?
Answer: 6.3 nM

Question: And the IC50 (LS513; exposure time 72 h)?
Answer: 1 nM

Question: And the IC50 (LS411N; exposure time 1 h)?
Answer: 9.4 nM

Question: And the IC50 (LS411N; exposure time 72 h)?
Answer: 1.6 nM

Question: What about the IC50 (Colo829; exposure time 1 h) of the same molecule?
Answer: 4.6 nM

Question: And the IC50 (Colo829; exposure time 72 h)?
Answer: 0.9 nM

Question: And the IC50 (UM-UC-3; UMUC3, 1 h)?
Answer: 7 nM

Question: What about the IC50 (UM-UC-3; UMUC3, 72 h) of the same molecule?
Answer: 1.4 nM

Question: What about the IC50 (Mia-PaCa2; exposure time 1 h) of the same molecule?
Answer: 49.7 nM

Question: And the IC50 (Mia-PaCa2; exposure time 72 h)?
Answer: 10.8 nM

Question: And the IC50 (SiHa; 1 h)?
Answer: 3.6 nM

Question: What about the IC50 (SiHa; 72 h) of the same molecule?
Answer: 0.8 nM

Question: And the IC50 (OVCAR-4; exposure time 1 h)?
Answer: 80 nM

Question: What about the IC50 (OVCAR-4; exposure time 72 h) of the same molecule?
Answer: 8.8 nM

Question: What about the IC50 (HCT-116; HCT-116, 1 h) of the same molecule?
Answer: 13.1 nM

Question: And the IC50 (HCT-116; HCT-116, 72 h)?
Answer: 2.2 nM

Question: And the IC50 (NCI-ADR; 1 h)?
Answer: 771 nM

Question: And the IC50 (NCI-ADR; 72 h)?
Answer: 71.3 nM

Question: What about the IC50 (NCI-H23; exposure time 1 h) of the same molecule?
Answer: 8.5 nM

Question: What about the IC50 (NCI-H23; exposure time 72 h) of the same molecule?
Answer: 1.3 nM

Question: What about the IC50 (BT474; exposure time 1 h) of the same molecule?
Answer: 3.8 nM

Question: And the IC50 (BT474; exposure time 72 h)?
Answer: 2.3 nM

Question: And the IC50 (CAL-27; exposure time 1 h)?
Answer: 2.8 nM

Question: What about the IC50 (CAL-27; exposure time 72 h) of the same molecule?
Answer: 0.5 nM

Question: What about the IC50 (HepG2; exposure time 1 h) of the same molecule?
Answer: 7.8 nM

Question: And the IC50 (HepG2; exposure time 72 h)?
Answer: 0.8 nM

Question: And the IC50 (FaDu; exposure time 1 h)?
Answer: 27.9 nM

Question: What about the IC50 (FaDu; exposure time 72 h) of the same molecule?
Answer: 1.6 nM

Question: And the IC50 (A-498)?
Answer: 16 nM
